{"source": "paper PMC8143339", "about": "“PK/PD Modeling of the PDE7 Inhibitor—GRMS-55 in a Mouse Model of Autoimmune Hepatitis” (Pharmaceutics, 2021)", "key": {"[1]": {"assay": "Pharmacokinetic study after IP administration", "type": "in vivo, female BALB/c mice", "conditions": "for half-life: ip", "protocol": "Pharmacokinetics of GRMS-55 was evaluated in female BALB/c mice following intraperitoneal (IP) administration of this compound at doses of 50 and 100 mg·kg^−1. The investigated compound was dissolved in a vehicle composed of DMSO, PEG 400, and water for injection at a ratio of 25:25:50 (v/v/v). Animals were exsanguinated at 5, 15, 30, 60, 90, and 120 min following GRMS-55 administration. Blood samples were collected, allowed to clot for 30 min at room temperature, and centrifuged at 3000× g for 10 min. The serum was separated and stored at −20 °C until analysis.\nTo analyze GRMS-55 concentrations in the mouse serum, we used the previously developed HPLC method with UV detection. A detailed description of this method was published in a supplementary material of our previous publication. Briefly, 10 μL of 4-(8-((furan-2-ylmethyl)amino)-1,3-dimethyl-2,6-dioxo-1,2,3,6-tetrahydro-7H-purin-7-yl)-N′-(2-hydroxybenzylidene)butanehydrazide solution as internal standard (IS) was added to tubes containing 100 μL of the analyzed serum. The samples were mixed with 20 μL of 1 M hydrochloric acid solution, subjected to extraction with 1 mL of dichloromethane, and centrifuged at 10,000× g for 8 min. The organic layers were transferred to new tubes and evaporated with nitrogen at 37 °C. Dry residues were then dissolved in 100 μL of mobile phase and transferred to glass vial inserts for HPLC analysis (LaChrom Elite, Merck-Hitachi, Darmstadt, Germany). The separation was achieved on a LiChrospher 100 RP-18 (250 × 4 mm) column (particle size of 5 μm) protected with a LiChroCART guard column (Merck, Darmstadt, Germany) using the mobile phase composed of 20 mM solution of KH2PO4 (pH = 4.5) and acetonitrile at a ratio of 45:55 (v/v) pumped at a flow rate of 1 mL min^−1 at ambient temperature. The analytical wavelength was set to 209 nm. In these conditions, the retention time of GRMS-55 was 9.2 min and for IS it was 5.3 min. The analytical method was validated according to FDA Bioanalytical Method Validation, Guidance for Industry. Specificity of the method was estimated by analyzing six different independent samples of the blank serum. […] The calibration curve was constructed by plotting the ratios of the peak area of the studied compound to IS vs. concentrations of GRMS-55 and it was linear in the tested concentration range, i.e., 0.050–20 mg·L^−1. Within runs and between runs, precision and accuracy met the acceptance criteria, i.e., they were less than 15% expressed as coefficients of variation % (CVs%) or ±15% of the nominal concentrations, respectively, for all quality control levels. Recoveries of the analyzed compound and IS assessed by comparing the peak areas of extracted samples with corresponding extracts of blanks spiked with the analyte post-extraction ranged from 94% to 98%. The lower limit of quantification was 0.05 mg·L^−1. GRMS-55 in serum samples was stable at room temperature for at least 12 h and at –20 °C for a period of 12 months. The stock solutions were stable for over one month at 4 °C.\nInitially, non-compartmental analysis of the concentration–time data of GRMS-55 was performed. Subsequently, pharmacokinetic modeling was conducted. Different compartmental models with linear and non-linear elimination were tested, and the final pharmacokinetic model with the best goodness-of-fit criteria was chosen. Several measures of goodness-of-fit were evaluated, i.e., value of the objective function, Akaike Information Criterion, Bayesian Information Criterion, visual inspection of fitting, and a precision of parameter estimates expressed as CVs%. Pharmacokinetic model parameters were estimated using the ADAPT 5 software (BMSR, Los Angeles, CA, USA) based on the weighted least squares algorithm. […]"}, "[2]": {"assay": "Assessment of emetogenicity: α2-adrenoceptor agonist-induced anesthesia (xylazine/ketamine)", "type": "in vivo, male CD-1 mice", "conditions": "doses up to 100 mg/kg IP", "protocol": "Male CD-1 mice were anesthetized with xylazine (10 mg·kg^−1) and ketamine (80 mg·kg^−1) in saline for injection-administered IP. Fifteen minutes later, the animals were IP-administered with GRMS-55 at doses of 50 or 100 mg·kg^−1, rolipram at a dose of 10 mg·kg^−1, or the corresponding volume of vehicle and subsequently placed in a dorsal recumbency position. The return of the righting reflex (i.e., when the animal turned itself spontaneously to a prone position) was used as an endpoint to measure the duration of anesthesia. In this test, shortening of the sleeping time is a behavioral correlate of emesis."}, "PDE4D": {"test_system": "PDE4D", "set-up": "method as in PMID 31899535", "conditions": "in vitro assay at concentrations up to 200 µM; cited from earlier work"}, "PDE1B": {"test_system": "PDE1B", "set-up": "method as in PMID 31899535", "conditions": "cited from earlier work"}, "[3]": {"set-up": "method as in PMID 31899535", "conditions": "cited from earlier work"}}, "note": "“Also recorded” adds a separate entry of the source. Read-outs that look alike come from different tables or passages of the source."}
{"smiles": "Cn1c(=O)c2c(nc(NCCc3ccccc3)n2CCCC(=O)NN=Cc2ccccc2O)n(C)c1=O", "note": "[GRMS-55, 4-(1,3-dimethyl-2,6-dioxo-8-(phenethylamino)-1,2,3,6-tetrahydro-7H-purin-7-yl)-N′-(2-hydroxybenzylidene)butanehydrazide]", "values": [{"measurement": "ka, absorption rate constant", "setting": "[1]; IP 50 or 100 mg/kg, one-compartment model", "value": 1.49, "unit": "h⁻¹"}, {"measurement": "half-life", "setting": "[1]; female, BALB/c, mouse, serum, mice, IP, read-out: terminal half-life", "value": "~30", "unit": "min"}, {"measurement": "half-life", "setting": "[1]; female, BALB/c, mouse, serum, non-compartmental approach, IP, read-out: serum terminal half-life (converted)", "value": "~30", "unit": "min"}, {"measurement": "half-life", "setting": "[1]; female, BALB/c, mouse, serum, read-out: absorption half-life (ln2/ka)", "value": 27.9, "unit": "min"}, {"measurement": "half-life", "setting": "[1]; female, BALB/c, mouse, serum, read-out: elimination half-life (ln2/ke)", "value": 9.1, "unit": "min"}, {"measurement": "Vd/F", "setting": "[1]; female, BALB/c, mouse, serum, IP 50 or 100 mg/kg, one-compartment model, read-out: Vd/F, apparent volume of distribution", "value": 1.81, "unit": "L/kg"}, {"measurement": "k el", "setting": "[1]; female, BALB/c, mouse, serum, IP 50 or 100 mg/kg, one-compartment model, read-out: ke, elimination rate constant (converted)", "value": 0.00127, "unit": "s⁻¹"}, {"measurement": "effect on sleeping time", "setting": "[2]", "value": "did not affect"}, {"measurement": "PDE4D inhibition", "setting": "PDE4D", "value": "not found to inhibit; also recorded: not active"}, {"measurement": "potency of PDE1B suppression", "setting": "PDE1B", "value": "high"}, {"measurement": "apparent volume of distribution at steady state", "setting": "[3]; male Wistar rats", "value": "~7", "unit": "L/kg"}, {"measurement": "half-life", "setting": "[3]; male and female rats", "value": "approximately 20 min"}]}
